ChEMBL document CHEMBL1145671, “Cactus Alkaloids. LIII. Coryphanthine and O-Methyl-Candicine, Two New Quaternary Alkaloids from Coryphantha greenwoodii” (J Nat Prod, 1983)
Counter-ions that a name gives are not always drawn.

System: not listed separately
Assay: (§1) Toxicity against brine shrimp assessed as impaired swimming movements after 24 hrs
Format: organism-based, Artemia
Details: artemia, in vivo

Question: Which LC50 at 24 h does the source give for `COc1ccc(CC[N+](C)(C)C)cc1` here?
Answer: The LC50 at 24 h was 425 µg/mL.

Question: Which LC50 at 24 h does the source give for `C[N+](C)(C)CCc1ccc(O)cc1` [CANDICINE CHLORIDE] here?
Answer: The LC50 at 24 h was 923 µg/mL.

Question: For `O=C1C[C@@H]2OCC=C3CN4CC[C@]56c7ccccc7N1[C@H]5[C@H]2[C@H]3C[C@H]46` [STRYCHNINE SULFATE], which LC50 at 24 h is on record?
Answer: The LC50 at 24 h was 164 µg/mL.

Question: For `COC(C[N+](C)(C)C)c1ccccc1` (racemic), which LC50 at 24 h is on record?
Answer: The LC50 at 24 h was 368 µg/mL.

Question: With `CN1CCC[C@H]1c1cccnc1` [NICOTINE HYDROCHLORIDE] as the compound, how does the LC50 at 24 h read?
Answer: The LC50 at 24 h was 158 µg/mL.

Question: For `CO[C@H](C[N+](C)(C)C)c1ccccc1`, which LC50 at 24 h is on record?
Answer: Its LC50 at 24 h is 354 µg/mL.

System: Artemia
Assay: as §1
Format: organism-based
Details: Artemia, 24 h

Question: With `C[N+](C)(C)CC(O)c1ccccc1.[Cl-]` (centres undefined) as the compound, how does the IC50 read?
Answer: Its IC50 is > 1000 µg/mL.

Question: Which IC50 does the source give for `C[N+](C)(C)CCO.[Cl-]` [CHOLINE CHLORIDE] here?
Answer: The IC50 was > 1000 µg/mL.

Same assay, conditions: artemia, in vivo, 24 h

Question: With `CO[C@H](C[N+](C)(C)C)c1ccccc1.[Cl-]` [CORYPHANTHINE CHLORIDE] as the compound, how does the LC50 read?
Answer: The LC50 was 494 µg/mL.
